Blank lines part the entries; values can stand above or below the molecule they belong to. Calls of active or inactive are those of the source. The calls are words filed in the database; no cut-off is given here.
How the values were obtained:
[1] = Tmax in male ICR mouse at 10 mg/kg, po measured after 24 hrs by LC-MS/MS analysis; assay type: ADME, organism-based; settings: in vivo
[2] = Clearance in male ICR mouse at 2 mg/kg, iv measured after 24 hrs by LC-MS/MS analysis; assay type: ADME, organism-based; settings: in vivo
[3] = MRT (0 to t) in male ICR mouse at 2 mg/kg, iv measured after 24 hrs by LC-MS/MS analysis; assay type: ADME, organism-based; settings: in vivo
[4] = Half-life in male ICR mouse at 2 mg/kg, iv measured after 24 hrs by LC-MS/MS analysis; assay type: ADME, organism-based; settings: in vivo
[5] = Cmax in male ICR mouse at 10 mg/kg, po measured after 24 hrs by LC-MS/MS analysis; assay type: ADME, organism-based; settings: in vivo
[6] = AUC (0 to t) in male ICR mouse at 2 mg/kg, iv measured after 24 hrs by LC-MS/MS analysis; assay type: ADME, organism-based; settings: in vivo
[7] = biological target: T1, Glucagon-like peptide 1 receptor (Homo sapiens, UniProt P43220); assay: Partial agonist activity at LgBit-tagged GLP-1R (unknown origin) transfected in HEK293 cells co-transfected with Smbit-tagged beta-arrestin-1 assessed as beta-arrestin recruitment incubated for 5 mins by envision microplate reader analysis; assay type: functional, cell-based
T1 sequence (P43220 whole entry): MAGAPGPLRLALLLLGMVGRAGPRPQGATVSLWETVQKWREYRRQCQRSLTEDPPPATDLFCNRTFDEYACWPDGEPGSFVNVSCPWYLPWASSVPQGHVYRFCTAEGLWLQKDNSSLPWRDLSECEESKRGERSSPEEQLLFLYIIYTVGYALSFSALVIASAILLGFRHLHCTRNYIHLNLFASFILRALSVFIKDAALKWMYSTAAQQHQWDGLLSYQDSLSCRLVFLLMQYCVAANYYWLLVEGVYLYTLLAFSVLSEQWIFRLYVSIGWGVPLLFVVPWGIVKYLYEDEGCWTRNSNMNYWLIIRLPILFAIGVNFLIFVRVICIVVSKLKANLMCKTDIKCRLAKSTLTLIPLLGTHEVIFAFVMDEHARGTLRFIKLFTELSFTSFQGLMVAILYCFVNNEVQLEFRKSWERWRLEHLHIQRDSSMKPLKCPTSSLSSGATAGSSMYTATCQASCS

[8] = Cmax in male ICR mouse at 2 mg/kg, iv measured after 24 hrs by LC-MS/MS analysis; assay type: ADME, organism-based; settings: in vivo
[9] = biological target: T1, Glucagon-like peptide 1 receptor; assay: Partial agonist activity at LgBit-tagged GLP-1R (unknown origin) transfected in HEK293 cells co-transfected with Smbit-tagged beta-arrestin-1 assessed as beta-arrestin recruitment by measuring maximal efficacy incubated for 5 mins by envision microplate reader analysis relative to control; assay type: functional, cell-based
[10] = Oral bioavailability in male ICR mouse at 10 mg/kg measured after 24 hrs by LC-MS/MS analysis; assay type: ADME, organism-based; settings: in vivo
[11] = Half-life in male ICR mouse at 10 mg/kg, po measured after 24 hrs by LC-MS/MS analysis; assay type: ADME, organism-based; settings: in vivo
[12] = Apparent volume of distribution in male ICR mouse at 2 mg/kg, iv measured after 24 hrs by LC-MS/MS analysis; assay type: ADME, organism-based; settings: in vivo, read-out: Vz
[13] = MRT (0 to t) in male ICR mouse at 10 mg/kg, po measured after 24 hrs by LC-MS/MS analysis; assay type: ADME, organism-based; settings: in vivo
[14] = AUC (0 to t) in male ICR mouse at 10 mg/kg, po measured after 24 hrs by LC-MS/MS analysis; assay type: ADME, organism-based; settings: in vivo
[15] = Protein binding in mouse plasma at 2 uM; assay type: ADME, cell-free; settings: read-out: PPB (converted)
[16] = Subacute toxicity in male BALB/c mouse assessed as change in lung to body weight ratio at 150 mg/kg, po administered via gavage for 14 days; assay type: organism-based; settings: in vivo, 336 h, time 14 day
[17] = biological target: T1, Glucagon-like peptide 1 receptor; assay: Binding affinity to human GLP-1R assessed as dissociation constant (KD) by SPR analysis
[18] = Toxicity in human GLP-1R knockin male mouse model assessed as effect on spleen pathology at 30 mg/kg, sc measured after 24 hrs by H and E staining based analysis; assay type: organism-based; settings: in vivo
[19] = Toxicity in human GLP-1R knockin male mouse model assessed as effect on ALT level at 30 mg/kg, sc measured after 24 hrs; assay type: organism-based; settings: in vivo
[20] = Toxicity in human GLP-1R knockin male mouse model assessed as effect on BUN level at 30 mg/kg, sc measured after 24 hrs; assay type: organism-based; settings: in vivo
[21] = Subacute toxicity in male BALB/c mouse assessed as pathologic change in lung at 150 mg/kg, po administered via gavage for 14 days by H and E staining based analysis; assay type: organism-based; settings: in vivo, 336 h, time 14 day
[22] = Subacute toxicity in male BALB/c mouse assessed as pathologic change in spleen at 150 mg/kg, po administered via gavage for 14 days by H and E staining based analysis; assay type: organism-based; settings: in vivo, 336 h, time 14 day
[23] = Hepatotoxicity in male BALB/c mouse assessed as effect on AST level at 150 mg/kg, po administered via gavage for 14 days; assay type: toxicity, organism-based; settings: in vivo, 336 h, time 14 day
[24] = Subacute toxicity in male BALB/c mouse assessed as pathologic change in liver at 150 mg/kg, po administered via gavage for 14 days by H and E staining based analysis; assay type: organism-based; settings: in vivo, 336 h, time 14 day
[25] = Subacute toxicity in male BALB/c mouse assessed as change in heart to body weight ratio at 150 mg/kg, po administered via gavage for 14 days; assay type: organism-based; settings: in vivo, 336 h, time 14 day
[26] = Subacute toxicity in male BALB/c mouse assessed as change in spleen to body weight ratio at 150 mg/kg, po administered via gavage for 14 days; assay type: organism-based; settings: in vivo, 336 h, time 14 day
Mus musculus [27] = assay: Antidiabetic activity in human GLP-1R knockin male mouse model assessed as reduction in blood glucose level at 2 mg/kg, IG preadministered with compound for 1 hrs followed by first dose of glucose administration for 3 hrs and measured after 270 mins of second glucose administration by oral glucose tolerance test; assay type: functional, organism-based; settings: time 510.0 min
[28] = Hepatotoxicity in male BALB/c mouse assessed as effect on ALT level at 150 mg/kg, po administered via gavage for 14 days; assay type: toxicity, organism-based; settings: in vivo, 336 h, time 14 day
[29] = Toxicity in human GLP-1R knockin male mouse model assessed as effect on kidney pathology at 30 mg/kg, sc measured after 24 hrs by H and E staining based analysis; assay type: organism-based; settings: in vivo
[30] = Toxicity in human GLP-1R knockin male mouse model assessed as effect on liver pathology at 30 mg/kg, sc measured after 24 hrs by H and E staining based analysis; assay type: organism-based; settings: in vivo
[31] = Nephrotoxicity in male BALB/c mouse assessed as effect on blood urea nitrogen level at 150 mg/kg, po administered via gavage for 14 days; assay type: toxicity, organism-based; settings: in vivo, 336 h, time 14 day
[32] = Unbound Cmax in male ICR mouse at 10 mg/kg, po measured after 24 hrs by LC-MS/MS analysis; assay type: ADME, organism-based; settings: in vivo
[33] = biological target: T1, Glucagon-like peptide 1 receptor; assay: Binding affinity to human GLP-1R assessed as association rate constant by SPR analysis; settings: filed as agonist
[34] = Subacute toxicity in male BALB/c mouse assessed as change in kidney to body weight ratio at 150 mg/kg, po administered via gavage for 14 days; assay type: organism-based; settings: in vivo, 336 h, time 14 day
[35] = Toxicity in human GLP-1R knockin male mouse model assessed as effect on AST level at 30 mg/kg, sc measured after 24 hrs; assay type: organism-based; settings: in vivo
[36] = Toxicity in human GLP-1R knockin male mouse model assessed as effect on lung pathology at 30 mg/kg, sc measured after 24 hrs by H and E staining based analysis; assay type: organism-based; settings: in vivo
[37] = biological target: T1, Glucagon-like peptide 1 receptor; assay: Binding affinity to human GLP-1R assessed as dissociation rate constant (Kd) by SPR analysis
[38] = Subacute toxicity in male BALB/c mouse assessed as change in liver to body weight ratio at 150 mg/kg, po administered via gavage for 14 days; assay type: organism-based; settings: in vivo, 336 h, time 14 day
[39] = Protein binding in mouse plasma at 2 uM assessed as unbound fraction; assay type: ADME, cell-free
[40] = Subacute toxicity in male BALB/c mouse assessed as body weight loss at 150 mg/kg, po administered via gavage for 14 days; assay type: organism-based; settings: in vivo, 336 h, time 14 day
[41] = Toxicity in human GLP-1R knockin male mouse model assessed as effect on creatinine level at 30 mg/kg, sc measured after 24 hrs; assay type: organism-based; settings: in vivo
[42] = Toxicity in human GLP-1R knockin male mouse model assessed as effect on heart pathology at 30 mg/kg, sc measured after 24 hrs by H and E staining based analysis; assay type: organism-based; settings: in vivo
[43] = Subacute toxicity in male BALB/c mouse assessed as pathologic change in heart at 150 mg/kg, po administered via gavage for 14 days by H and E staining based analysis; assay type: organism-based; settings: in vivo, 336 h, time 14 day
[44] = Nephrotoxicity in male BALB/c mouse assessed as decrease in creatinine level at 150 mg/kg, po administered via gavage for 14 days; assay type: toxicity, organism-based; settings: in vivo, 336 h, time 14 day
Mus musculus [45] = assay: Appetite suppressing activity in human GLP-1R knockin male mouse model assessed as reduction in food intake at 30 mg/kg, sc measured at 12 to 24 hrs (light cycle); assay type: functional, organism-based; settings: time 12-24 hrs
Mus musculus [46] = assay: Appetite suppressing activity in human GLP-1R knockin male mouse model assessed as reduction in food intake at 30 mg/kg, sc measured after 2.5 to 12 hrs; assay type: functional, organism-based; settings: time 2.5-12 hrs
[47] = Subacute toxicity in male BALB/c mouse assessed as pathologic change in kidney at 150 mg/kg, po administered via gavage for 14 days by H and E staining based analysis; assay type: organism-based; settings: in vivo, 336 h, time 14 day
[48] = Subacute toxicity in male BALB/c mouse assessed as mortality at 150 mg/kg, po administered via gavage for 14 days; assay type: organism-based; settings: in vivo, 336 h, time 14 day
Mus musculus [49] = assay: Antidiabetic activity in human GLP-1R knockin male mouse model assessed as reduction in blood glucose level at 2 mg/kg, IG preadministered with compound for 1 hrs followed by glucose administration for 3 hrs by oral glucose tolerance test; assay type: functional, organism-based; settings: time 4.0 hrs
[50] = biological target: T1, Glucagon-like peptide 1 receptor; assay: Agonist activity at human GLP-1R expressed in HEK293 cells assessed as cAMP accumulation incubated for 30 mins by LANCE ultra cAMP assay; assay type: functional, cell-based

Tmax [1]: 0.42 h | clearance [2]: 9.05 mL/min/kg | MRT last at 24 h [3]: 0.39 h | half-life [4]: 5.71 h | Cmax [5]: 283 ng/mL | AUC(0-t) at 24 h [6]: 3720 ng·h/mL | EC50 [7]: > 200 µM | Cmax [8]: 16500 ng/mL | Emax [9]: 28% | bioavailability [10]: 3.2% | half-life [11]: 6.06 h | Vd [12]: 4.27 L/kg | MRT last at 24 h [13]: 3.21 h | AUC(0-t) at 24 h [14]: 582 ng·h/mL
Molecule: COc1cc(C(F)(F)F)ccc1C[Se]c1cccc(N2C=NN(Cc3nc4c(F)cc(C(=O)O)cc4n3C[C@@H]3CCO3)CC2)n1

Molecule: COc1cc(C#N)ccc1C[Se]c1cccc(C2CCN(Cc3nc4ccc(C(=O)O)cc4n3C[C@@H]3CCO3)CC2)n1
fraction unbound at 2 µM [15]: 0.02 | Activity [16]: Non-toxic | Kd [17]: 1 µM | Activity [18]: Non-toxic | Activity [19]: Non-toxic | Activity [20]: Non-toxic | Tmax [1]: 0.5 h | clearance [2]: 6.12 mL/min/kg | Activity [21]: Non-toxic | MRT last at 24 h [3]: 0.77 h | Activity [22]: Non-toxic | half-life [4]: 2.22 h | Activity [23]: Non-toxic | Cmax [5]: 4960 ng/mL | AUC(0-t) at 24 h [6]: 5460 ng·h/mL | Activity [24]: Non-toxic | Activity [25]: Non-toxic | EC50 [7]: > 200 µM | Activity [26]: Non-toxic | Activity (Mus musculus [27]): Active | Cmax [8]: 8110 ng/mL | Activity [28]: Non-toxic | Emax [9]: 13% | Activity [29]: Non-toxic | Activity [30]: Non-toxic | Activity [31]: Non-toxic | fCmax [32]: 99.21 ng/mL | bioavailability [10]: 20.4% | Ka [33]: 5.52 10^3/M.s | Activity [34]: Non-toxic | Activity [35]: Non-toxic | Activity [36]: Non-toxic | half-life [11]: 5.13 h | Kd [37]: 5.53 10^-3/s | Vd [12]: 1.18 L/kg | Activity [38]: Non-toxic | MRT last at 24 h [13]: 1.91 h | fraction unbound at 2 µM [39]: 0.02 | Activity [40]: Non-toxic | Activity [41]: Non-toxic | Activity [42]: Non-toxic | Activity [43]: Non-toxic | Activity [44]: Toxic | Activity (Mus musculus [45]): Active | Activity (Mus musculus [46]): Active | Activity [47]: Non-toxic | AUC(0-t) at 24 h [14]: 5540 ng·h/mL | Activity [48]: Non-toxic | Activity (Mus musculus [49]): Active

Ka [33]: 7.94 10^5/M.s
Molecule: SEMAGLUTIDE

EC50 [50]: > 200 µM
Molecule: CC(C)[C@@H](NCc1nc2ccc(C(=O)O)cc2n1C[C@@H]1CCO1)C(=O)Nc1cccc([Se]Cc2ccc(C#N)cc2F)n1

— ChEMBL document CHEMBL6096721, “Discovery of Selenium-Containing Derivatives as Potent and Orally Bioavailable GLP-1R Agonists” (J Med Chem, 2025)
